Legend:
[1] = molecular target: T1, Amine oxidase [flavin-containing] A (Homo sapiens, UniProt P21397); assay: Inhibition of human recombinant MAO-A
T1 sequence (P21397 whole entry): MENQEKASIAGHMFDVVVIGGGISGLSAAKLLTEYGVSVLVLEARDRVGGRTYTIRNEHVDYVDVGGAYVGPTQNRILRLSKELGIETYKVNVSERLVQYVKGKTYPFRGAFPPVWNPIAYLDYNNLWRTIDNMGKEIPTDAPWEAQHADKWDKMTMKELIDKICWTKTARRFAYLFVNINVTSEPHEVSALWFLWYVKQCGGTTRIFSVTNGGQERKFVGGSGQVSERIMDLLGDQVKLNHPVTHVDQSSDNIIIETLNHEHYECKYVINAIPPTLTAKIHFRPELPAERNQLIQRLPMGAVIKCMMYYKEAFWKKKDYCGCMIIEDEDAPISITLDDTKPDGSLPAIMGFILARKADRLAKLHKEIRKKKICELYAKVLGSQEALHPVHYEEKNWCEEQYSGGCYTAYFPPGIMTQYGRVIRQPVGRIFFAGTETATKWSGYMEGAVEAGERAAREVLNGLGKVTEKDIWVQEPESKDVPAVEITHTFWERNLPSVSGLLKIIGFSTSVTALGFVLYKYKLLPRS

[2] = Selectivity index, ratio of IC50 for human recombinant MAO-A to IC50 for human recombinant MAO-B
[3] = Antioxidant activity assessed as trolox equivalent of ORAC radical scavenging activity by ORAC-FL assay relative to trolox; format: functional
[4] = molecular target: Amyloid-beta precursor protein (Homo sapiens) (UniProt P05067); assay: Disaggregation of self-induced amyloid beta (1 to 42) (unknown origin) preformed fibrils at 25 uM by ThT fluorescence assay
Amyloid-beta precursor protein (Homo sapiens), sequence (P05067 whole entry): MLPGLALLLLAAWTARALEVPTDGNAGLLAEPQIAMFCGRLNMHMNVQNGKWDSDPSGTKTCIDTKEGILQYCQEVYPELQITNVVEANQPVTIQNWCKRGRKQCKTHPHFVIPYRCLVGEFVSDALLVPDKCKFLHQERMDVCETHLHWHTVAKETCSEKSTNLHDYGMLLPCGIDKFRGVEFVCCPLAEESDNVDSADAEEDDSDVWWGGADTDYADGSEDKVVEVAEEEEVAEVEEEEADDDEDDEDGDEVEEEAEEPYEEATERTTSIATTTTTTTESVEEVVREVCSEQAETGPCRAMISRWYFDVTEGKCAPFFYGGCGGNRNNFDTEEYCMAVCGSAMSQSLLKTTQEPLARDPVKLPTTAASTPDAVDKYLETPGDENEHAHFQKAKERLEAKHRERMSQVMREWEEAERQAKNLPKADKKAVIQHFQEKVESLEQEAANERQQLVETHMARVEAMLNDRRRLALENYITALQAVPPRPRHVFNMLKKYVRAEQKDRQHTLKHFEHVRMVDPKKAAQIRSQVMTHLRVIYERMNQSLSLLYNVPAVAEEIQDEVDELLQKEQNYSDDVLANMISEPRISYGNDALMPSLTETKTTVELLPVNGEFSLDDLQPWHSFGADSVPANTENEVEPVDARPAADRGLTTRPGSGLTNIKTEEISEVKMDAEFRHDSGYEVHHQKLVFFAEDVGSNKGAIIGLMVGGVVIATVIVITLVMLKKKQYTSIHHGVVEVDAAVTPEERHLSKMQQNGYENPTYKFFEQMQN

[5] = molecular target: Amyloid-beta precursor protein (Homo sapiens) (UniProt P05067); assay: Inhibition of self-induced amyloid beta (1 to 42) (unknown origin) aggregation at 25 uM by ThT fluorescence assay
[6] = molecular target: Amyloid-beta precursor protein (Homo sapiens) (UniProt P05067); assay: Disaggregation of Cu2+-induced amyloid beta (1 to 42) (unknown origin) preformed fibrils at 25 uM by ThT fluorescence assay
[7] = molecular target: T2, Amine oxidase [flavin-containing] B (Homo sapiens, UniProt P27338); assay: Inhibition of human recombinant MAO-B
T2 sequence (P27338 whole entry): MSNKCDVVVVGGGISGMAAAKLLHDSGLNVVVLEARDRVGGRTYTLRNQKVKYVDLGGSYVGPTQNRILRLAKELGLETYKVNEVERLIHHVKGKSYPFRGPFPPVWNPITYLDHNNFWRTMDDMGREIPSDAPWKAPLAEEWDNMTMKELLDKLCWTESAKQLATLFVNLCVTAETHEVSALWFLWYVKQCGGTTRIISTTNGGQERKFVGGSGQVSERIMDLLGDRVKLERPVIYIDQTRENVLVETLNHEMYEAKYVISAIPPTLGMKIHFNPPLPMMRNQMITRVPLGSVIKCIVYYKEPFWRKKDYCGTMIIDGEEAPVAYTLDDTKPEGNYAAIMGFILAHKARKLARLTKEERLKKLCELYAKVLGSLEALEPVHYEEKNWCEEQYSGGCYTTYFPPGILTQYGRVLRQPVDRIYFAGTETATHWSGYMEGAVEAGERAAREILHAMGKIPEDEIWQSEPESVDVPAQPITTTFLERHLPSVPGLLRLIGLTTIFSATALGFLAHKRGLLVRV

MAO-A = molecular target: T3, MAO-A (Homo sapiens, UniProt P21397); assay: Inhibition of human recombinant MAO-A at 10 uM
T3 sequence (P21397 whole entry): T1 sequence (P21397 whole entry)

[8] = molecular target: Amyloid-beta precursor protein (Homo sapiens) (UniProt P05067); assay: Inhibition of Cu2+-induced amyloid beta (1 to 42) (unknown origin) aggregation at 25 uM by ThT fluorescence assay

SMILES | IC50 [1] | Ratio IC50 [2] | Ratio [3] | Activity [4] | inhibition [5] | Activity [6] | IC50 [7] | inhibition at 10 µM (MAO-A) | inhibition [8] | Activity ([4]; tested as the 2H-labelled form) | inhibition ([5]; tested as the 2H-labelled form)
CCCCCCCC1OC(=O)c2cc(N3N=C(c4cc(OC)ccc4O)CC3=O)ccc21 (stereo not drawn) | > 10 µM | > 3.5 | 1.82 equiv | 31.1% | 45.4% | 60.7% | 2.87 µM | 8.73% | 63.1% | – | –
CCCCC1OC(=O)c2cc(N3N=C(c4cc(C)ccc4O)CC3=O)ccc21 (stereo not drawn) | > 10 µM | > 1.4 | 1.6 equiv | 24.7% | 54.4% | – | 7.35 µM | 5.2% | 61.2% | – | –
CCCCC1OC(=O)c2cc(N3N=C(c4cc(Cl)ccc4O)CC3=O)ccc21 (stereo not drawn) | > 10 µM | > 1.3 | 1.32 equiv | 49.9% | 85.1% | 74.6% | 7.62 µM | 14.1% | 58.8% | – | –
CCCCCCCC1OC(=O)c2cc(N3N=C(c4ccccc4O)CC3=O)ccc21 (stereo not drawn) | > 10 µM | > 0.9 | 1.38 equiv | 68.6% | 57.8% | 71.7% | 11.4 µM | 14.5% | 44.1% | – | –
CCCCC1OC(=O)c2cc(-n3nc(-c4ccccc4O)cc3C)ccc21 (stereo not drawn) | > 10 µM | – | 1.38 equiv | 8.11% | 19.3% | – | > 10 µM | 20.4% | – | – | –
CCCCCCC1OC(=O)c2cc(N3N=C(c4ccccc4O)CC3=O)ccc21 (stereo not drawn) | > 10 µM | > 2.6 | 1.33 equiv | 59.5% | 50.3% | 66.7% | 3.79 µM | 21.7% | 43.8% | – | –
CC1=NN(c2ccc3c(c2)C(=O)OC3)C(=O)C1 | – | 1.6 | 1.18 equiv | – | – | – | – | – | – | 28.6% | 71.5%
O=C1OCc2ccc(N3N=C(c4cc(F)ccc4O)CC3=O)cc21 | > 10 µM | > 17.9 | 1.25 equiv | 41.1% | 46.1% | 42.8% | 0.56 µM | 24.2% | 44.7% | – | –
CCCCC1OC(=O)c2cc(N3N=C(c4ccccc4O)CC3=O)ccc21 (stereo not drawn) | > 10 µM | – | 1.55 equiv | 65% | 70.9% | 76.4% | > 10 µM | 25.6% | 75.3% | – | –
CCCCC1OC(=O)c2cc(N3N=C(c4ccc(Cl)cc4O)CC3=O)ccc21 (stereo not drawn) | > 10 µM | > 1.2 | 1.29 equiv | 56.5% | 68% | 65.6% | 8.05 µM | 5.51% | 66.2% | – | –
CCCCC1OC(=O)c2cc(N3N=C(c4ccc(N(C)C)cc4O)CC3=O)ccc21 (stereo not drawn) | > 10 µM | > 2 | 1.84 equiv | 7.68% | 24.9% | – | 5.07 µM | 9.51% | – | – | –
[2H]C1OC(=O)c2cc(N3N=C(C)CC3=O)ccc21 (stereo not drawn) | 6.78 µM | – | – | – | – | – | 4.36 µM | – | – | – | –
CCCCC1OC(=O)c2cc(N3N=C(c4cc(Br)ccc4O)CC3=O)ccc21 (stereo not drawn) | > 10 µM | > 1.08 | 1.38 equiv | 44.8% | 69.3% | 55% | 9.25 µM | 10.9% | 64.1% | – | –
CCCCC1OC(=O)c2cc(N3N=C(c4cc(N(C)C)ccc4O)CC3=O)ccc21 (stereo not drawn) | > 10 µM | > 1.6 | 2.58 equiv | 51% | 60.6% | 55.7% | 6.2 µM | 1.6% | 63.8% | – | –
CCCCC1OC(=O)c2cc(N3N=C(c4cc([N+](=O)[O-])ccc4O)CC3=O)ccc21 (stereo not drawn) | > 10 µM | > 1.1 | 0.73 equiv | 57.2% | 68.8% | 61.8% | 9.26 µM | 8.48% | 66.1% | – | –
CCCCC1OC(=O)c2cc(N3N=C(c4cccc(Br)c4O)CC3=O)ccc21 (stereo not drawn) | > 10 µM | > 1 | 1.15 equiv | 67.4% | 75.5% | 62.8% | 10.5 µM | 13% | 50.6% | – | –
COc1cc(/C=C/C(=O)CC(=O)/C=C/c2ccc(O)c(OC)c2)ccc1O | – | – | – | 35.8% | – | – | – | – | – | – | –
CCCCCCC1OC(=O)c2cc(N3N=C(c4cc(F)ccc4O)CC3=O)ccc21 (stereo not drawn) | > 10 µM | > 1.6 | 1.1 equiv | 43.7% | 44.6% | 55% | 6.34 µM | 10.7% | 31.8% | – | –
O=C1OCc2ccc(N3N=C(c4cccc(F)c4O)CC3=O)cc21 | > 10 µM | > 11.1 | 1.1 equiv | 8.27% | 21.3% | – | 0.9 µM | 21% | – | – | –
CCCCC1OC(=O)c2cc(N3N=C(c4cccc(F)c4O)CC3=O)ccc21 (stereo not drawn) | > 10 µM | – | 1.07 equiv | 42.6% | 67% | 54.6% | > 10 µM | 7.96% | 75.9% | – | –
O=C1OCc2ccc(N3N=C(c4ccccc4O)CC3=O)cc21 | > 10 µM | > 45.5 | 1.38 equiv | 28.1% | 33.5% | – | 0.22 µM | 23.2% | – | – | –
C[C@H](NCc1ccc(OCc2cccc(F)c2)cc1)C(N)=O [SAFINAMIDE] | – | – | – | – | – | – | – | 9.67% | – | – | –

From ChEMBL document CHEMBL5620344, “Discovery of novel 5-(2-hydroxyphenyl)-2-phthalide-3(3H)-pyrazolones as balanced multifunctional agents against Alzheimer's disease” (Eur J Med Chem, 2023)
